From US7943633B2, “Alkaloid compounds and their use as anti-malarial drugs” (Universite Pierre et Marie Curie (Paris VI), priority 2004, dated 2011)
Several values for one entry are separate records, joined by “and”; a condition that tells them apart may be missing. Identical values can stand only once. Like-named read-outs stand apart in the source and are kept apart here.

Legend:
[1] = In vitro cytotoxicity, neutral red, KB cells; format: cell-based; details: human, KB carcinoma cells (ATCC CCL-17), 72 hours incubation, read-out: CI50 cytotoxicity KB (converted)
Description: (§1) Stock solutions of testing compounds were prepared in H2O/DMSO (9/1).
(§2) After an incubation of 72 hours at 37° C. under a 5% CO2 atmosphere, 0.02% of neutral red in PBS was added.
(§3) 24 hours later, culture media were eliminated and cell membranes were lysed by addition of 1% of SDS in water.
(§4) Cell growth was estimated by colorimetric measurement of stained living cells, incorporating neutral red. Optical density was determined at 540 nm on a Titertek Multiskan photometer.
(§5) The Cl50 value was defined as the concentration of compound necessary to inhibit the cell growth to 50% of the control.

[2] = In vitro cytotoxicity, neutral red, HT29 cells; format: cell-based; details: human, HT29 colon tumor cells (ATCC HTB-38), 72 hours incubation, read-out: CI50 cytotoxicity HT29 (converted)
Description: as §1, §2, §3, §4, §5

[3] = system: Plasmodium yoelii yoelii 265BY; assay: In vitro inhibition of P. yoelii yoelii 265BY growth (hepatic stage) in primary murine hepatocytes; format: cell-based; details: for IC50: Plasmodium yoelii, Hepatocyte, read-out: CI50 activity P. yoelii 265BY; for Selectivity index CI50 KB/CI50 yoelii: ratio between CI50 of cytotoxicity (KB) and CI50 of anti-malarial activity
Description: Primary cultures of mouse hepatocytes were isolated from livers of Swiss mice which were 6 to 8 weeks old by perfusion with collagenase (1 g/L) and purified through a 60% Percoll gradient.
The hepatocytes were cultured in sterile chambers (Lab-Tek) at the rate of 90,000 cells in 0.3 mL of complete culture medium as defined thereafter per well and incubated overnight at 37° C. under a 4% CO2 atmosphere. The hepatocytes' complet culture medium was Williams' E culture medium supplemented with 10% of decomplemented foetal calf serum, 1% glutamine, 1% Na pyruvate, 1% of a mixture of insulin, transferrine and selenium, 1% of non-essential amino-acids and with an antibiotic mixture comprising 1% of a solution of penicillin and streptomycine, 1% augmentin and […] flucytosine.
The parasites infecting the hepatocytes; i.e. the sporozoites, were recovered by dissection of infected anopheles mosquitoes salivary glands.
After grinding them in a Potter grinder with culture medium, the suspension was filtered on a 40 μm mesh filter and centrifuged (15,000 rpm) at 4° C. for 2 mn. The pellet was reintroduced in the complete culture medium. The sporozoites were then counted in a “Cell Vu” counter (CML) and the concentration was adjusted at 100,000 sporozoites per 70 μL, concentration needed for infection.
One day after, the hepatocytes were infected by the above sporozoites from salivary glands of infected anopheles mosquitoes at the rate of 100,000 sporozoites per well in the presence or absence of the product to be tested. When the infection had appeared, the medium was supplemented with 10^−7 M dexamethasone. The products were first solubilized in DMSO.
The infected hepatocytes were washed and fed with culture medium containing the test product, 3 hours and then 24 hours after the infection.
The cultures were stopped by treatment with a cold fixative methanol solution, 48 hours after the infection.
Parasites obtained in schizont stage were immunomarked firstly, with a serum isolated from BALB/c mice immunized with a recombinant fragment from the N-terminal of the recombinant protein I72 that reacted against HSP70 of Plasmodium and secondly with an antibody—a mouse anti-immunoglobulin—conjugated to FITC. Evans Blue and DAPI, a nucleic acid marker, were added to the hepatocytes simultaneously. The schizonts were then counted with a fluorescent microscope.
(§6) The Cl50 value (concentration causing 50% of inhibition in the number of parasites compared to controls wells, non treated) is the mean value of 3 independent evaluations through StatView SI Graphics.

[4] = system: Plasmodium falciparum NF54; assay: In vitro inhibition of P. falciparum NF54 (hepatic stage) in human hepatocytes; format: cell-based; details: NF54, Hepatocyte, 120 h, fixed 5 days after infection, read-out: CI50 activity P. falciparum NF54
Description: B—Human Model: Hepatic Stage of Plasmodium falciparum NF54
Human hepatocytes were obtained by enzymatic perfusion of fragments of liver of human adults which were submitted to partial hepatectomy.
The hepatocytes were infected at 24 hours of their culture by sporozoites obtained from salivary glands of P. falciparum infecting anopheles mosquitoes stephensi (Lab. of Pr. W. Eling, Univ. Of Nijmegen, NL).
The culture medium containing the test product was changed 3 hours after infection, and then renewed at least, each 24 hours during the experiment.
The cultures were fixed 5 days after infection, with the same method as described for the murine hepatocytes.
as §6

[5] = system: Plasmodium yoelii yoelii 265BY; assay: In vivo antimalarial activity in Swiss mice infected with sporozoites; details: for number of parasited red blood cells (parasitemia): compared to control group; for Number of parasited mice/total mice: 100 mg/kg fed four times
Description: 40 Swiss mice (six week old) have been subjected to the in vivo assay. They have been allotted in two groups: • a group of 20 mice were fed with compound (1) diluted in sterile water at a dose of 100 mg/kg four times; 24 hours and 1 hour before infection, 24 hours and 40 hours after infection during the hepatic stage period. • a control group of 20 mice were fed with sterile water at the same times.
The infection has been performed by retro-orbital injection of 4,000 sporozoites of Plasmodium yoelii yoelii 265BY in 100 μl phospate-buffered saline per mouse.
The parasitemia was monitored from the third day after the infection D3 when the parasites are liberated from the liver and enter into the blood circulation and each day until the 23rd day D23 after infection. The monitoring was performed by blood smears taken from the tail vein of the mice. The smears were stained with Giemsa and parasited red blood cells were counted with a microscope.
The parasitemia was calculated according to the following formula: Parasited red blood cell number×100/total red blood cell number.

| Structure (SMILES) | IC50 at 72 h [1] | IC50 at 72 h [2] | Selectivity index CI50 KB/CI50 yoelii [3] | IC50 ([3]; 48 h) | also measured |
| --- | --- | --- | --- | --- | --- |
| O=c1[nH]cc(F)c(=O)[nH]1 [5-fluorouracile, reference compound] | 0.047 µg/mL and 360 nM | 54.9 µg/mL and 422 µM |  |  |  |
| O=C1C(O)=C([C@H]2CC[C@H](c3ccc(Cl)cc3)CC2)C(=O)c2ccccc21 [Atovaquone, atovaquone, reference compound] | 18.6 µg/mL and 50.8 µM | 44.6 µg/mL and 122 µM | 891.2 |  | IC50 ([3]; murine hepatocytes, schizonts counted 48 hours after infection, mean of 3 evaluations): 0.021 µg/mL; IC50 ([3]; murine hepatocytes, schizonts counted 48 hours after infection): 57 nM |
| COC1=C2[C@H]3NCC[C@]2(C[C@H](O)[C@@H]1O)c1c(ccc(OC)c1O)[C@H]3O [Compound (1), 4,6,7,10-tetrahydroxy-8,14-didehydro-3,8-dimethoxy-morphinan] | 1.99 µg/mL and 5.7 µM | 22 µg/mL and 63 µM | 1.8 | 1.08 µg/mL and 3.1 µM | IC50 [4]: 1.51 µg/mL and 4.3 µM; number of parasited red blood cells (parasitemia) ([5]; 100 mg/kg): reduces parasitemia; number of parasited red blood cells (parasitemia) ([5]; 100 mg/kg, listed as compound (1)): significant decrease; total protection against malaria infection in mice ([5]; 100 mg/kg, oral administration): 70%; survival of mice at D23 ([5]; 100 mg/kg, control group 75%): 90%; delay of parasitemia for treated mice not protected, compared to control ([5]; 100 mg/kg, the 30% of treated mice not protected): ≥ 3 days; Number of parasited mice/total mice ([5]; D3 post-infection): 0/20; Number of parasited mice/total mice ([5]; D4 post-infection): 0/20; Number of parasited mice/total mice ([5]; D5 post-infection): 0/20; Number of parasited mice/total mice ([5]; D6 post-infection): 1/20; Number of parasited mice/total mice ([5]; D7 post-infection): 4/20; Number of parasited mice/total mice ([5]; D8 post-infection): 6/20; Number of parasited mice/total mice ([5]; D23 post-infection): 6/18 |
| COC1=C2[C@@H]3Cc4ccc(OC)c(O)c4[C@]2(CCN3)C[C@H](O)[C@@H]1O [Compound (2), 4,6,7-trihydroxy-8,14-didehydro-3,8-dimethoxy-morphinan] | 1.3 µg/mL and 3.9 µM | 12.2 µg/mL and 36.8 µM | 0.9 | 1.5 µg/mL and 4.5 µM | IC50 [4]: 3.36 µg/mL and 10.1 µM |
| COC1=C2[C@@H]3[C@H](O)c4ccc(OC)c(O)c4[C@]2(CCN3C)C[C@H](O)[C@@H]1O [Compound (3), N-methyl-4,6,7,10-tetrahydroxy-8,14, didehydro-3,8-dimethoxy-morphinan] | 32.3 µg/mL and 89 µM | > 80 µg/mL and > 220 µM | 15.5 | 2.09 µg/mL and 5.8 µM |  |
| CCCN1CC[C@@]23C[C@H](O)[C@H](O)C(OC)=C2[C@@H]1[C@H](O)c1ccc(OC)c(O)c13 [Compound (4), N-propyl-4,6,7,10-tetrahydroxy-8,14, didehydro-3,8-dimethoxy-morphinan] | 40.4 µg/mL and 103 µM | > 80 µg/mL and > 204 µM | 8.2 | 4.93 µg/mL and 12.6 µM |  |
| COC1=C2[C@@H]3[C@H](O)c4ccc(OC)c(O)c4[C@]2(CCN3Cc2ccc(OC)cc2)C[C@H](O)[C@@H]1O [Compound (5), N-4-methoxybenzyl-4,6,7,10-tetrahydroxy-8,14, didehydro-3,8-dimethoxy-morphinan] | 21.2 µg/mL and 45.3 µM | > 80 µg/mL and > 170 µM | 1.9 | 11.4 µg/mL and 24.2 µM |  |
| COC1=C2[C@@H]3[C@H](O)c4ccc(OC)c(O)c4[C@]2(CCN3Cc2ccc(O)cc2)C[C@H](O)[C@@H]1O [Compound (6), N-4-hydroxybenzyl-4,6,7,10-tetrahydroxy-8,14, didehydro-3,8-dimethoxy-morphinan] | 9.53 µg/mL and 20.9 µM | 49 µg/mL and 108 µM | 1.5 | 6.44 µg/mL and 14.2 µM |  |
| COC1=C2[C@@H]3[C@H](O)c4ccc(OC)c(O)c4[C@]2(CCN3Cc2ccc(Br)cc2)C[C@H](O)[C@@H]1O [Compound (7), N-4-bromobenzyl-4,6,7,10-tetrahydroxy-8,14, didehydro-3,8-dimethoxy-morphinan] | 15.8 µg/mL and 30.5 µM | > 80 µg/mL and > 154 µM | 7.3 | 2.19 µg/mL and 4.2 µM |  |
| COC1=C2[C@@H]3[C@H](O)c4ccc(OC)c(O)c4[C@]2(CCN3C2CCCC2)C[C@H](O)[C@@H]1O [Compound (8), N-cyclopentyl-4,6,7,10-tetrahydroxy-8,14, didehydro-3,8-dimethoxy-morphinan] | 27.6 µg/mL and 66.3 µM | > 80 µg/mL and > 192 µM | 18.9 | 1.46 µg/mL and 3.5 µM |  |
| CC[C@]1(O)C[C@@H]2CN(CCc3c([nH]c4ccccc34)[C@@](C(=O)OC)(c3cc4c(cc3OC)N(C)[C@H]3[C@@](O)(C(=O)OC)[C@H](OC(C)=O)[C@]5(CC)C=CCN6CC[C@]43[C@@H]65)C2)C1 [Vinblastine, vinblastine, reference compound] | 0.018 µg/mL and 22 nM | 0.008 µg/mL and 9.9 nM |  |  |  |
| COc1cc(NC(C)CCCN)c2ncccc2c1 (centres unmarked) [primaquine, reference compound] | 2 µg/mL and 7 µM | 20.1 µg/mL and 70.5 µM | 11.7 | 0.16 µg/mL and 600 nM |  |
